Test results taken from patent US6586427B2, “Treatments for nervous disorders” (Pharmacia & Upjohn Company, priority 1998, dated 2003).

What was measured:
[1] = in vivo; cited from earlier work
[2] = tested on: monoamine oxidase (MAO)
[3] = tested on: I-adrenerigic receptors; assay: interaction with I-adrenergic receptors; format: binding
[4] = tested on: muscarinic cholinergic receptors; assay: interaction with muscarinic cholinergic receptors; format: binding
[5] = tested on: norepinephrine uptake
[6] = tested on: serotonin uptake
[7] = tested on: dopamine uptake

In the case of `CCOc1ccccc1OC(c1ccccc1)C1CNCCO1` (stereo not shown) [Reboxetine], the “effect in the 8-OH-DPAT hypothermia test” value [1] is given as “ineffective”, the “monoamine oxidase (MAO) inhibitory activity” value [2] is given as “devoid of monoamine oxidase (MAO) inhibitory activity” and the “interaction with I-adrenerigic receptors” value [3] is given as “without showing any appreciable interaction”. For the same compound, the “interaction with muscarinic cholinergic receptors” value [4] was “without showing any appreciable interaction”, the “norepinephrine uptake inhibitory activity” value [5] was “highly selective norepinephrine uptake inhibitor” and the “serotonin uptake inhibitory activity” value [6] was “only marginal”. For the same compound, the “dopamine uptake inhibitory activity” value [7] was “no dopamine uptake inhibitory activity”.
